# Assay results taken from patent publication US10590392B2, “Generation of airway epithelial organoids from human pluripotent stem cells” (TRUSTEES OF BOSTON UNIVERSITY, priority 2017, dated 2020).
# “Also recorded” adds a separate entry of the source.
# Assays:
# [1] = system: iPSC-derived NKX2-1+ lung progenitors; assay: Immunofluorescence and intracellular flow cytometry for NKX2-1, SOX2, SOX9, P63 coexpression at day 19; format: cell-based, human
# Procedure: Cells were harvested for intracellular flow cytometry and fixed for 10-20 minutes at 37° C. in fresh 1.6% paraformeldehyde. Cells were permeabilized with Cell Permeabilization Buffer (eBioscience, San Diego, Calif.) containing 4% normal donkey serum (Sigma) in PBS and stained with primary antibody for NKX2-1 (Abcam # ab76013, rabbit EP1584Y, 1:100) or a conjugated antibody for SOX2 (BD #561506, PerCP-Cy5.5 conjugated, mouse O30-678, 1:100). Anti-NKX2-1 antibody was detected by secondary antibody stainings with either Cy3, Alexa Fluor 488, or Alexa Fluor 647 fluorophore-conjugated secondary antibodies (AffiniPure Donkey Anti-Rabbit IgG (H+L); 1:500; Jackson ImmunoResearch, West Grove, Pa.). Stained cells were analyzed on a FacsCalibur instrument (BD Biosciences, San Jose, Calif.) and data was analyzed with FlowJo software (Ashland, Oreg.).
# Cells for immunofluorescence microscopy were cultured on glass coverslips (ThermoFisher). Cultured cells were fixed with fresh 4% paraformeldehyde and stained as described previously(Kurmann et al., 2015). Briefly, cells were permeabilized with 0.3% Triton-X (Sigma) for 10 minutes at room temperature then blocked with 4% normal donkey serum (Sigma) for 30 minutes at room temperature. Cells were incubated with primary antibodies (detailed in Key Resources Table 3) overnight at 4° C., washed, and incubated with secondary antibodies for 30-60 minutes at room temperature. All secondary antibodies were conjugated to Alexa Fluor 488, Cy3, or Alexa Fluor 647 (Jackson Immunoresearch, 1:500). After antibody staining, nuclei were stained with Hoescht dye (ThermoFisher, 1:500). Coverslips with cells were mounted on glass slides using Prolong Diamond Anti-Fade Mounting Reagent (ThermoFisher) and imaged on a Nikon (Tokyo, Japan) deconvolution microscope.
# Quantification of nuclear colocalization was performed using Nikon NIS Elements software using the Object Count function. 3-5 areas from each slide were analyzed for each replicate. The total image area where NKX2-1 and SOX2 or P63 overlapped was divided by the area containing only the NKX2-1 stain.
# [2] = system: sorted NKX2-1GFP+ epithelial lung progenitors; assay: Purified NKX2-1GFP+ lung progenitors replated in 3D culture with or without CHIR, day 14 to 20; format: cell-based, human
# Procedure: Cells grown in two-dimensional culture were harvested by incubation with 0.05% Trypsin-EDTA for 10-20 minutes at 37° C. Cells cultured in three-dimensional growth factor reduced Matrigel were harvested by incubation with 2 mg/mL dispase (ThermoFisher) for 30-60 minutes at 37° C. then subsequent incubation with 0.05% trypsin at 37° C. until a single cell suspension was achieved. Cells were washed with media containing 10% fetal bovine serum (FBS, ThermoFisher.) Harvested cells were spun at 300 RCF for 5 minutes at 4° C. and resuspended in buffer containing Hank's Balanced Salt Solution (ThermoFisher), 2% FBS and 10 μM Y-27632 (Tocris) and stained with propidium iodide (ThermoFisher) or calcein blue AM (ThermoFisher) for dead cell exclusion during flow cytometry. Live cells were sorted on a high speed cell sorter (MoFlo Legacy, Beckman Coulter, Pasadena, Calif.) at the Boston University Medical Center Flow Cytometry Core Facility based on NKX2-1GFP expression or by staining for CD47 (Biolegend) and CD26 (Biolegend) and gating for CD47^hi/CD26^−. […]
# The final protocol for generating rapidly proximalized NKX2-1+ lung epithelium was replating unsorted or sorted cells for 4 days of culture post-specification in cSFDM containing 10 ng/mL FGF10. […] Cells were analyzed for expression of proximal markers 4 days post-replating in FGF10 media.
# The inventors next assessed whether the effect of CHIR manipulation on proximodistal lung patterning was intrinsic to lung epithelial cells rather than due to secondary or bystander effects. […] By day 20, the sorted cells formed small spheres coexpressing NKX2-1 and EPCAM (FIG. 3B-3C). >90% of all outgrowth cells in either culture conditioned maintained NKX2-1^GFP (+CHIR: 98.2±0.5%−CHIR: 93.4±2.3%) (FIG. 3D-3E) and cells in each condition formed organoids with no measured statistical difference in efficiency.
# [3] = system: 7XTCF-mCherry Wnt reporter in FG293 cells; assay: Lentiviral 7XTCF-mCherry Wnt reporter dose-response in FG293 cells; conditions: 3 μM CHIR
# [4] = withdrawal of CHIR, re-sorted NKX2-1GFP+ cells at day 20
compound,measurement,setting,value
"Cc1c[nH]c(-c2cnc(NCCNc3ccc(C#N)cn3)nc2-c2ccc(Cl)cc2Cl)n1 [CHIR, CHIR99021]",cells co-expressing NKX2-1 and P63,"[1]; CHIR withdrawal day 15-19 (FGF10 alone) vs CHIR, immunofluorescence",increased frequencies; also recorded: significantly increased coexpression
same,percentage of cells coexpressing NKX2-1 and SOX2,[1]; CHIR withdrawal day 15-19 vs CHIR,significantly higher percentage; also recorded: small but significant increase
same,NKX2-1+ population expressing SOX2,"[1]; CHIR-treated day 15-19, intracellular flow cytometry, without CHIR 68.0±4.1%",54.9±5.5%
same,SOX2+ cells among NKX2-1+ cells,"[1]; day 19, with CHIR (also without CHIR)",> 50%
same,NKX2-1+ cells that were SOX9+,"[1]; sustained CHIR day 15-19, triple immunostaining, 4 days after withdrawal of CHIR <40%",> 90%
same,outgrowth cells maintaining NKX2-1GFP on day 20,"[2]; +CHIR day 14-20, 3D culture of sorted cells, flow cytometry, −CHIR: 93.4±2.3%",98.2±0.5%
same,expression of distal lung genes SOX9 and ETV5,[2]; [4],downregulation
same,"expression of proximal lung genes SOX2, SCGB3A2, TP63",[2]; [4],upregulation
same,Wnt activation (lentiviral TCF reporter),[3],induce Wnt activation
same,cytotoxicity,[3],without significant cytotoxicity
